Data as given in US10167258B2, “Inhibitors of mitochondrial pyruvate dehydrogenase kinase isoforms 1-4 and uses thereof” (The Board of Regents of the University of Texas System, priority 2013, dated 2019).
Where two headings read alike, the source gives them in different places. One block for each compound: values may come before it.

Tests used:
PDK4 [1] = molecular target: T1, PDK4 (Homo sapiens, UniProt Q16654); settings: literature value; cited from earlier work
Target sequence in this assay (Q16654 whole entry, species assumed): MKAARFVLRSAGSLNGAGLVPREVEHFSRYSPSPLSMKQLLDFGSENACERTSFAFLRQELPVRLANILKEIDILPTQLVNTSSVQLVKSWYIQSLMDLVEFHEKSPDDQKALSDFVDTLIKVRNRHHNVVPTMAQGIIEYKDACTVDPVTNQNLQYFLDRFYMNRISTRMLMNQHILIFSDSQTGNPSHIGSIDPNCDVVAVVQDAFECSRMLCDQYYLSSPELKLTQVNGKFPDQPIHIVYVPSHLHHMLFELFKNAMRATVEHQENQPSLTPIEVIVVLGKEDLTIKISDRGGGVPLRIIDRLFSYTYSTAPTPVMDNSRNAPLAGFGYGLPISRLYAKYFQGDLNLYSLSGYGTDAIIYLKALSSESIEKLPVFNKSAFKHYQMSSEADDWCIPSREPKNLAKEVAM

Hsp90 = settings: literature value; cited from earlier work
PDK2 [2] = molecular target: T2, PDK2 (Homo sapiens, UniProt Q15119); experiment: Assay for inhibition of PDK activity, PDK2; format: biochemical; design: made in house
Protocol: (§1) Recombinant human PDK2 was expressed and purified as a N terminal His6-tagged SUMO fusion protein with a tobacco-etch-virus protease (TEV) cleavage site in front of the N-terminal PDK2 sequence (26), and was used directly for the activity assay and binding affinity analyses. […] The purified protein was concentrated to 35-40 mg/ml and stored at −80° C. in small aliquots. Recombinant human PDK1, PDK3 and PDK4 were expressed and purified as described previously (26).
(§2) The remaining steps were described previously (26). IC50 values were obtained by the curve fitting of inhibition isotherms using Prism 6 (GraphPad software, Inc.).

PDK4 [3] = molecular target: T1, PDK4; experiment: Assay for inhibition of PDK activity, PDK4; format: biochemical; design: made in house
Protocol: as §1, §2
Target sequence in this assay (Q16654 whole entry): as the sequence (Q16654 whole entry, species assumed) above

PDK2 [4] = molecular target: T2, PDK2; experiment: Isothermal titration calorimetry (ITC), binding to PDK2; design: made in house
Protocol: as §1
(§3) The PDK2 or Hsp90 N-terminal domain protein was dialyzed against one liter of the dialysis buffer containing 50 mM Tris-Cl, pH 7.5, 50 mM KCl, 1 mM MgCl2, and 0.5 mM β-mercaptoethanol. […] All of the ITC data were initially analyzed by the NITPIC program (32) to construct the baseline, followed by curve-fitting in Origin 7 to obtain binding parameters.

[5] = molecular target: T3, N-terminal domain of human Hsp90 (Homo sapiens, UniProt P07900); experiment: Isothermal titration calorimetry (ITC), binding to Hsp90 N-terminal domain; settings: read-out: Kd, nM for Hsp 90
T3 construct: the N-terminal domain (residue 1-236) of human Hsp90; His6 (N); SUMO (N); made in house; host or cells: E. coli BL21
Protocol: The sequence encoding the N-terminal domain was amplified and cloned into the pSUMO expression vector (Lifesensors, Malvern, Pa.). The fusion protein of His6-tagged SUMO-Hsp90 N-terminal domain was expressed in E. coli BL21 cells and purified with Ni-NTA resin (Qiagen) and on Superdex-200 column in 20 mM Tris.HCl, pH 7.5 and 500 mM NaCl.
as §3

human PDK1 = molecular target: T4, human PDK1 (Homo sapiens, UniProt Q15118); experiment: Assay for inhibition of PDK activity, PDK1; format: biochemical
T4 construct: made in house
Protocol: (§4) Recombinant human PDK2 was expressed and purified as a N terminal His6-tagged SUMO fusion protein with a tobacco-etch-virus protease (TEV) cleavage site in front of the N-terminal PDK2 sequence (26), and was used directly for the activity assay and binding affinity analyses. For crystallization, the protein was subjected to a TEV-protease digestion, and the untagged PDK2 protein was purified on a Superdex 200 column in 20 mM Tris-HCl (pH 8.0), 150 mM NaCl and 5 mM DTT. The purified protein was concentrated to 35-40 mg/ml and stored at −80° C. in small aliquots. Recombinant human PDK1, PDK3 and PDK4 were expressed and purified as described previously (26).
(§5) . The remaining steps were described previously (26). IC50 values were obtained by the curve fitting of inhibition isotherms using Prism 6 (GraphPad software, Inc.).

PDK2 [6] = molecular target: T2, PDK2; experiment: biochemical
Protocol: The kinase-profiling of PS8 on 21 human protein kinases were performed at Reaction Biology Corp. (Malvern, Pa.). […] Each protein kinase was also tested against its known inhibitor as a positive control.
The selectivity of PS8 was studied by determining IC50 for the inhibition of a 21-kinase panel including PDK2. […] Except PDK4, PDK isoforms anchor to the E2/E3BP of PDC for optimal kinase activity in vivo.

[7] = Half-life in vitro in hepatic S9 fractions; format: in vitro ADME; settings: data not shown
[8] = Pharmacokinetic studies in mice after IP dosing; format: in vivo; settings: 20 mg/kg IP, female CD-1 mice, plasma
Protocol: Twenty-one male C57BL/6J mice were dosed IP with 70 mg/kg PS-10, 0.2 ml/mouse formulated as 10% DMSO/20% water/70% of 25% (2-hydroxypropyl)-β-cyclodextrin for determination of PS-10 PK. Twenty-one female CD-1 mice were dosed IP with 20 mg/kg PS-8, 0.2 ml/mouse formulated as 5% ethanol and 95% of 0.1 M sodium bicarbonate pH 9.0 for determination of PS-8 PK. Animal (n=3) were sacrificed and whole blood was harvested for each time point. Plasma was processed from whole blood by centrifugation of the ACD treated blood for 10′ at 10,000 rpm in a standard centrifuge. The analytical processing of blood samples and pharmacokinetics studies using LC/MS/MS were as described previously with LC/MS/MS methods optimized for detection of PS-10 and PS-8 (33).

PDK3 [9] = molecular target: T5, PDK3 (Homo sapiens, UniProt Q15120); experiment: Assay for inhibition of PDK activity, PDK3; format: biochemical; design: made in house
Protocol: as §4, §5
Target sequence in this assay (Q15120 whole entry): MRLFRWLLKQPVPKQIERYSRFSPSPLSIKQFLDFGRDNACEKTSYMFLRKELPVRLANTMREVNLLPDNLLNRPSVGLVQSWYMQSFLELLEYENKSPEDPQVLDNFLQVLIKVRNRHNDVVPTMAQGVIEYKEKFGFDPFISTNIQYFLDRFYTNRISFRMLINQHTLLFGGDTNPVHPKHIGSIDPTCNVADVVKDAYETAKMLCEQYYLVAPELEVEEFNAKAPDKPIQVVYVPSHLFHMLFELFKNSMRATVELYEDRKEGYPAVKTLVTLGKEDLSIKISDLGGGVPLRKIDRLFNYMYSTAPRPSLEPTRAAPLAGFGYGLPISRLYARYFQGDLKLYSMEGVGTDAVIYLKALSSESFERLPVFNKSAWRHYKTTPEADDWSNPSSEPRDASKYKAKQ

PDK3 [10] = molecular target: T5, PDK3; settings: literature value; read-out: IC50 (ATP-competitive inhibitor, PDK3); cited from earlier work
Target sequence in this assay (Q15120 whole entry, species assumed): as the sequence (Q15120 whole entry) above

PDK = settings: literature value; read-out: IC50 (known PDK inhibitor); cited from earlier work
[11] = Table 1, inhibitor 31.6 nM to 1 mM, read-out: IC50, μM for PDK2
[12] = Table 1, inhibitor 31.6 nM to 1 mM, read-out: IC50, μM for PDK4

T4 sequence (Q15118 29-436): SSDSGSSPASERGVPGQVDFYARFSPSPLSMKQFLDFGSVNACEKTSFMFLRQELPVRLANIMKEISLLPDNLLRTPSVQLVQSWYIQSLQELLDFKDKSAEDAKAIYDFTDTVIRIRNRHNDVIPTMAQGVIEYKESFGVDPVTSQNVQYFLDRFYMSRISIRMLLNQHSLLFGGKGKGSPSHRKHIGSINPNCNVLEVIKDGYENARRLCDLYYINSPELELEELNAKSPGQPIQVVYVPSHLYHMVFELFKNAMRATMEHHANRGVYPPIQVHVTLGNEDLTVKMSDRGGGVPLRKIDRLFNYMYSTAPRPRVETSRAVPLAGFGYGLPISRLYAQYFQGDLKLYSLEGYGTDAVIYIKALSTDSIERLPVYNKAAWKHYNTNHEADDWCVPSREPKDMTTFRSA

Structure (SMILES): COc1ccc(-c2c(-c3ccc(O)cc3O)n[nH]c2C)cc1 [Compound M77976]
IC50 (PDK4 [1]): 648000 nM | IC50 (Hsp90): 4400 nM

Structure (SMILES): O=C(c1cc(Br)c(O)cc1O)N1Cc2ccccc2C1 [PA1, (5-bromo-2,4-dihydroxyphenyl)(isoindolin-2-yl)methanone]
IC50 (PDK2 [2]; [11]): 6.78 µM | IC50 (PDK4 [3]; [12]): 1.86 µM | Kd (PDK2 [4]; ITC, read-out: Kd, nM for PDK2): 3570 nM

Structure (SMILES): O=C(c1ccc(O)cc1O)N1Cc2ccccc2C1 [PA7, (2,4-dihydroxyphenyl)(isoindolin-2-yl)methanone]
IC50 (PDK2 [2]; [11]): 5.68 µM | IC50 (PDK4 [3]; [12]): 1.05 µM | Kd (PDK2 [4]; ITC, read-out: Kd, nM for PDK2): 1830 nM

Structure (SMILES): O=S(=O)(c1ccc(O)cc1O)N1Cc2ccccc2C1 [PS2, 4-(isoindolin-2-ylsulfonyl)benzene-1,3-diol]
Kd [5]: 50900 nM | IC50 (PDK2 [2]; [11]): 2.11 µM | IC50 (PDK4 [3]; [12]): 2.2 µM | Kd (PDK2 [4]; ITC, read-out: Kd, nM for PDK2): 711 nM | shift in binding affinities in favor of PDK2 (carbonyl in PA7 to sulfonyl in PS2) (PDK2 [4]; from Kd values for PDK2 and Hsp90): 4,791 fold

Structure (SMILES): O=S(=O)(c1ccc(O)cc1O)N1Cc2ccc(O)cc2C1 [PS8, 4-((5-hydroxyisoindolin-2-yl)sulfonyl)benzene-1,3-diol]
IC50 (human PDK1; absence of E2/E3BP core (−)): 2500 ± 140 nM | IC50 (human PDK1; presence of E2/E3BP core (+)): 2140 ± 330 nM | Kd [5]: 60100 nM | IC50 (PDK2 [6]): 70 nM | IC50 of all other kinases on the panel relative to PDK2 (PDK2 [6]; 21-kinase panel, next lowest CDK1/cyclin B): at least 3 orders of magnitude | half-life [7]: > 4 h | CL/F [8]: 1.55 mL/min | AUC(0-t) ([8]; mouse): 5170 ng·h/mL | Cmax ([8]; mouse): 7600 ng/mL | Tmax ([8]; mouse): 0.167 h | half-life ([8]; mouse, read-out: Terminal T1/2): 1.55 h | Vd/F ([8]; mouse, read-out: Vz/F): 0.209 L | IC50 (PDK2 [2]; [11]): 1.07 µM | IC50 (PDK2 [2]; presence of E2/E3BP core (+), read-out: IC50 for PDK2): 0.71 ± 0.14 µM | IC50 (PDK4 [3]; [12]): 1.1 µM | IC50 (PDK4 [3]; presence of E2/E3BP core (+), read-out: IC50 for PDK4): 0.84 ± 0.08 µM | IC50 (PDK3 [9]; absence of E2/E3BP core (−)): 13700 ± 2080 nM | IC50 (PDK3 [9]; presence of E2/E3BP core (+)): 2550 ± 380 nM | Kd (PDK2 [4]; ITC, read-out: Kd, nM for PDK2): 426 nM

IC50 (PDK2 [2]): 0.61 µM | Kd (PDK2 [4]): 143 nM
Structure (SMILES): O=S(=O)(c1ccc(O)cc1O)N1Cc2ccc(NC3CCNCC3)cc2C1 [PS35]

Kd (PDK2 [4]): 188 nM
Structure (SMILES): O=S(=O)(c1ccc(O)cc1O)N1Cc2ccc(NC3CCN(CC(O)CO)CC3)cc2C1 (stereo not shown) [PS38]

Kd (PDK2 [4]): 338 nM
Structure (SMILES): O=C(C1C[C@@H](O)C(O)[C@H](O)C1)N1CCC(Nc2ccc3c(c2)CN(S(=O)(=O)c2ccc(O)cc2O)C3)CC1 (stereo partly shown) [PS39]

Kd (PDK2 [4]): 403 nM
Structure (SMILES): O=C(C1=C[C@@H](O)[C@@H](O)[C@H](O)C1)N1CCC(Nc2ccc3c(c2)CN(S(=O)(=O)c2ccc(O)cc2O)C3)CC1 [PS40]

Kd (PDK2 [4]): 1400 nM
Structure (SMILES): O=C(O)CCCCN1CCC(Nc2ccc3c(c2)CN(S(=O)(=O)c2ccc(O)cc2O)C3)CC1 [PS41]

Kd (PDK2 [4]): 917 nM
Structure (SMILES): O=C(O)CCCN1CCC(Nc2ccc3c(c2)CN(S(=O)(=O)c2ccc(O)cc2O)C3)CC1 [PS42]

Structure (SMILES): C[C@@H]1C[C@H]2O[C@@H]2/C=C\C=C\C(=O)Cc2c(Cl)c(O)cc(O)c2C(=O)O1 [Radicicol, radicicol, reference compound]
IC50 (PDK3 [10]): 230000 to 400000 nM | IC50 (PDK2 [2]; [11]): 77.8 µM | Kd (PDK2 [4]; ITC, read-out: Kd, nM for PDK2): 18600 nM

Structure (SMILES): C[C@@H]1CN(C(=O)[C@@](C)(O)C(F)(F)F)[C@@H](C)CN1C(=O)c1ccc(C#N)cc1 [compound 3, (+)-1-N-[2,5-(S,R)-dimethyl-4-N-(4-cyanobenzoyl)piperazine]-(R)-3,3,3-trifluoro-2-hydroxy-2-methylpropan-amide]
IC50 (PDK): 16 nM
